Columns and labels:
[1] = biological target: PI3K p110α/p85α (Homo sapiens, UniProt P42336); assay: PI3K p110α/p85α enzymatic activity, Kinase-Glo Luminescent Kinase Assay; type: biochemical; details: 3 μM, 10 μM and 30 μM of Palbociclib; p<0.001 compared with control; activity decreased with increasing concentration; n=6; FIG. 1A
Description: (§1) Palbociclib was dissolved in ddH2O (as solvent) and then added to the reagents which contain PI3K p110α/p85α (50 ng/ml), PI3K p110β/p85α (150 ng/ml), or PI3K p110δ/p85α (50 ng/ml). The final concentration of Palbociclib was 0.1 to 30 μM. Then, the mixtures were incubated for 10 minutes at 25° C. The reagent which was added by ddH2O (solvent, marked as “−” in FIGS. 1A-1C) instead of Palbociclib was as a control in this experiment. 2.5X ATP/substrate was added to each reagent and then further incubated for 60 minutes. Finally, enzymatic activities of PI3K were analyzed according to the user manual of Kinase-Glo® Luminescent Kinase Assays (Promega Corporation, catalog number V1690) and luminometer (TECAN infinite 200 Pro) by using Kinase-Glo® Luminescent Kinase Assays.

[2] = biological target: PI3K p110β/p85α (Homo sapiens, UniProt P42338); assay: PI3K p110β/p85α enzymatic activity, Kinase-Glo Luminescent Kinase Assay; type: biochemical; details: 3 μM, 10 μM and 30 μM of Palbociclib; p<0.001 compared with control; activity decreased with increasing concentration; n=6; FIG. 1B
Description: as §1

[3] = biological target: PI3K p110δ/p85α (Homo sapiens, UniProt O00329); assay: PI3K p110δ/p85α enzymatic activity, Kinase-Glo Luminescent Kinase Assay; type: biochemical; details: 0.1 μM, 1 μM and 10 μM of Palbociclib; p<0.001 compared with control; activity decreased with increasing concentration; n=6; FIG. 1C
Description: as §1

[4] = system: fMLF-stimulated neutrophils; assay: Superoxide anion generation in fMLF-stimulated neutrophils (ferricytochrome c reduction, OD550); type: cell-based; details: 1 μM, 3 μM and 10 μM of Palbociclib; human neutrophils stimulated with fMLF (0.1 μM)/cytochalasin B; compared with control; decreased with increasing concentration; FIG. 2A
Description: (§2) The informed consent to participate which was approved by the Institutional Review Board are signed by the donors. 50 mL of blood was collected from the median cubital vein of each donor by sterile vacutainer, and was used to isolate neutrophils for the following experiments.
(§3) Human neutrophils (isolated from whole blood of donors) were incubated with ddH2O (as solvent, marked as “−” in the groups at X-axis in FIGS. 2A and 2B) or Palbociclib (0.3-10 μM, dissolved in ddH2O) for 5 minutes, and then stimulated the neutrophils with or without fMLF (0.1 μM)/cytochalasin B (CB, 1 μg/ml) for another 10 minutes to activate the neutrophils. The absorbances (OD550 and OD450) of the reaction mixture were then measured by a spectrophotometer at OD 550 nm and OD 450 nm. The reading of OD550 is used to detect the reduction of ferricytochrome c, which indicates the amount of superoxide anion. The reading of OD450 is used to detect the status of Methoxysuccinyl-Ala-Ala-Val-p-nitroanilide (which is a specific substrate of elastase) affected by elastase, which indicates the release amount and activity of elastase. Cytochalasin B was sold by Sigma-Aldrich, catalog number #2506; fMLF was sold by Sigma-Aldrich, catalog number #454454; model number of the spectrophotometer is HITACHI U-3010. […]

[5] = system: fMLF-stimulated neutrophils; assay: Elastase release in fMLF-stimulated neutrophils (Methoxysuccinyl-Ala-Ala-Val-p-nitroanilide, OD450); type: cell-based; details: 3 μM and 10 μM of Palbociclib; human neutrophils stimulated with fMLF (0.1 μM)/cytochalasin B; compared with control; decreased with increasing concentration; FIG. 2B
Description: as §2, §3

[6] = system: IMQ-treated mice; assay: Psoriasis-like symptoms in IMQ-treated mice; type: in vivo, Male BALB/c mice
Description: 500 μg of Palbociclib was dissolved in 100 μl of 60% ethanol to make a pharmaceutical composition. The Palbociclib concentration of the pharmaceutical composition was 500 μg/100 μl and used in the subsequent animal experimental example 4. Male BALB/c mice (7-9 weeks of age, the body weight of each mouse is about 20 g) were divided into different groups, and each group has 6 mice. Each mouse was epilation on the back and then treated with 100 μl of solvent (60% ethanol) or 100 μl of the pharmaceutical composition prepared in example 3 (the concentration of Palbociclib is 25 mg/kg of body weight) by applying on the nude back skin before topical treatment of imiquimod (IMQ, sold by 3M Health Care Limited). And then applying with or without IMQ on the nude back skin of mice to cause psoriasis-like symptom. Each treatment was given once per day for 5 consecutive days. The mice which applying solvent and IMQ is played as the control. The mice which merely applying solvent or Palbociclib without IMQ are played as the blank 1 and blank 2.

PI3K p110β/p85α, sequence (P42338 whole entry): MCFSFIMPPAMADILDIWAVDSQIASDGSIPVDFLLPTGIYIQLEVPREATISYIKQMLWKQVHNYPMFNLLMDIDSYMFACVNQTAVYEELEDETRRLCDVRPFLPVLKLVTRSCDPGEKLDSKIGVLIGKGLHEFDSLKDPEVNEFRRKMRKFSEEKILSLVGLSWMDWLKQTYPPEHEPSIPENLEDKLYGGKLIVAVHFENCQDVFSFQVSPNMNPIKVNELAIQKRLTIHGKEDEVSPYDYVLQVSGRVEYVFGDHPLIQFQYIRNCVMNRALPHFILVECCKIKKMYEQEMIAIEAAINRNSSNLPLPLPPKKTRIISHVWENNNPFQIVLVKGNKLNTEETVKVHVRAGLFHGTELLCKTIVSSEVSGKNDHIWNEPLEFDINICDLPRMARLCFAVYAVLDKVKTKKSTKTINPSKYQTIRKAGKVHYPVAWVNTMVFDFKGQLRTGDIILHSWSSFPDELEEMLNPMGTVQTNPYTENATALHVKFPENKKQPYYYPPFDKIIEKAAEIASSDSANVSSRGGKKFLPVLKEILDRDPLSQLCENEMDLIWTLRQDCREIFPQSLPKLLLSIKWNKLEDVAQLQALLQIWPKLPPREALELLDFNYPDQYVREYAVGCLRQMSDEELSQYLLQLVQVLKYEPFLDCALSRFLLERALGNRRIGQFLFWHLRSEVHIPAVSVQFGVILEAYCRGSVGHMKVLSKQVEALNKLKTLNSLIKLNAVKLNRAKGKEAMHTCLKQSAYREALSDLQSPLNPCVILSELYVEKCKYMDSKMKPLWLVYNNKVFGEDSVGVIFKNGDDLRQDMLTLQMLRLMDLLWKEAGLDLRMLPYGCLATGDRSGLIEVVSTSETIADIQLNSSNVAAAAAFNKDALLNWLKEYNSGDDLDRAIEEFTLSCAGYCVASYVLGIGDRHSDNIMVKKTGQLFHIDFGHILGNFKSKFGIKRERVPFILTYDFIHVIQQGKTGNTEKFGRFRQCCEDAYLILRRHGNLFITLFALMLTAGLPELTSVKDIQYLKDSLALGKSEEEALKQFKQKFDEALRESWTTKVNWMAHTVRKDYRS
PI3K p110β/p85α, sequence (P27986 whole entry partner): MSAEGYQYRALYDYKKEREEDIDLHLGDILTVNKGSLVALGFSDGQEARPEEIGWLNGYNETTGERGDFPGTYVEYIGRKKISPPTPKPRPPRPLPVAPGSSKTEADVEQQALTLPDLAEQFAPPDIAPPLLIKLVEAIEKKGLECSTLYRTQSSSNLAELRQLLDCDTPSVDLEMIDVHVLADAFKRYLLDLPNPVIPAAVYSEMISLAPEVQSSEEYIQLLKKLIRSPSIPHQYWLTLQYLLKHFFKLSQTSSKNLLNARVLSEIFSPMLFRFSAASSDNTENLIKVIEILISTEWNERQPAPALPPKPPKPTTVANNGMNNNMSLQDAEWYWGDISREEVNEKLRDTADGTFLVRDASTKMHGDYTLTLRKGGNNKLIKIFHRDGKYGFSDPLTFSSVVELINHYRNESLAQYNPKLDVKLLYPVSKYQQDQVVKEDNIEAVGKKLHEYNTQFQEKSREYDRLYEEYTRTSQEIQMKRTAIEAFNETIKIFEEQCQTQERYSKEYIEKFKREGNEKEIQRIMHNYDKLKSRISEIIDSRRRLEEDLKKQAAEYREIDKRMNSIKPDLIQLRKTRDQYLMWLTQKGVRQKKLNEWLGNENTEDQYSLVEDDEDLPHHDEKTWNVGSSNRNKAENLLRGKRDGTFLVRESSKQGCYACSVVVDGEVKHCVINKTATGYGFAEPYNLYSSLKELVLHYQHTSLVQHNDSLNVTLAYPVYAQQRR
PI3K p110α/p85α, sequence (P42336 whole entry): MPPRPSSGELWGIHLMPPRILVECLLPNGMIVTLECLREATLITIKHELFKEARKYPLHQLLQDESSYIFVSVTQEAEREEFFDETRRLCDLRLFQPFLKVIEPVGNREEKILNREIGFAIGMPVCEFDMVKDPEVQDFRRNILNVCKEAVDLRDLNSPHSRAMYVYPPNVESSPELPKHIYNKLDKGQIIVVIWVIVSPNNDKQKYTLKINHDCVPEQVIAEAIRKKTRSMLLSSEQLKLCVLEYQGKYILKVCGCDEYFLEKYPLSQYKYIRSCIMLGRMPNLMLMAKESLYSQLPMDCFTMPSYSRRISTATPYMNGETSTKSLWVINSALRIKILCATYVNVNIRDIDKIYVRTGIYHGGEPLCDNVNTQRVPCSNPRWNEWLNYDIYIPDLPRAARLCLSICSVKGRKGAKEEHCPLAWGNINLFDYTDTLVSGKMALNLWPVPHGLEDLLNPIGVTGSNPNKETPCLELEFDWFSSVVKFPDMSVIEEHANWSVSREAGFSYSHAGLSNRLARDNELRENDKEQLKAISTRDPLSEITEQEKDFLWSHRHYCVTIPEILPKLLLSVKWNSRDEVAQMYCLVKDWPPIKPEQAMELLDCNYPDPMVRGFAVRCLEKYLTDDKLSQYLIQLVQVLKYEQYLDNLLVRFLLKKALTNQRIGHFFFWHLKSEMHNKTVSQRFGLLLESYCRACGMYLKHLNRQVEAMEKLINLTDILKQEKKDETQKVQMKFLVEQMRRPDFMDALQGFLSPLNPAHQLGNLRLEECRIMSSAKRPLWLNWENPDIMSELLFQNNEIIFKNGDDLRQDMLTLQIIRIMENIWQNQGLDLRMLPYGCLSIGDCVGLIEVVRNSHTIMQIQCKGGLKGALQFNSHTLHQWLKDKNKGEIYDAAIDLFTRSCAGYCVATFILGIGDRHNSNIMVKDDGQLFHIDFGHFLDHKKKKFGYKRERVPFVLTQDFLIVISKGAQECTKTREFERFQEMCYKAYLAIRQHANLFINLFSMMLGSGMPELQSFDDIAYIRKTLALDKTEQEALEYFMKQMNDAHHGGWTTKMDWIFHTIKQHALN
PI3K p110α/p85α, sequence (P27986 whole entry partner): as the sequence (P27986 whole entry partner) above
PI3K p110δ/p85α, sequence (O00329 whole entry): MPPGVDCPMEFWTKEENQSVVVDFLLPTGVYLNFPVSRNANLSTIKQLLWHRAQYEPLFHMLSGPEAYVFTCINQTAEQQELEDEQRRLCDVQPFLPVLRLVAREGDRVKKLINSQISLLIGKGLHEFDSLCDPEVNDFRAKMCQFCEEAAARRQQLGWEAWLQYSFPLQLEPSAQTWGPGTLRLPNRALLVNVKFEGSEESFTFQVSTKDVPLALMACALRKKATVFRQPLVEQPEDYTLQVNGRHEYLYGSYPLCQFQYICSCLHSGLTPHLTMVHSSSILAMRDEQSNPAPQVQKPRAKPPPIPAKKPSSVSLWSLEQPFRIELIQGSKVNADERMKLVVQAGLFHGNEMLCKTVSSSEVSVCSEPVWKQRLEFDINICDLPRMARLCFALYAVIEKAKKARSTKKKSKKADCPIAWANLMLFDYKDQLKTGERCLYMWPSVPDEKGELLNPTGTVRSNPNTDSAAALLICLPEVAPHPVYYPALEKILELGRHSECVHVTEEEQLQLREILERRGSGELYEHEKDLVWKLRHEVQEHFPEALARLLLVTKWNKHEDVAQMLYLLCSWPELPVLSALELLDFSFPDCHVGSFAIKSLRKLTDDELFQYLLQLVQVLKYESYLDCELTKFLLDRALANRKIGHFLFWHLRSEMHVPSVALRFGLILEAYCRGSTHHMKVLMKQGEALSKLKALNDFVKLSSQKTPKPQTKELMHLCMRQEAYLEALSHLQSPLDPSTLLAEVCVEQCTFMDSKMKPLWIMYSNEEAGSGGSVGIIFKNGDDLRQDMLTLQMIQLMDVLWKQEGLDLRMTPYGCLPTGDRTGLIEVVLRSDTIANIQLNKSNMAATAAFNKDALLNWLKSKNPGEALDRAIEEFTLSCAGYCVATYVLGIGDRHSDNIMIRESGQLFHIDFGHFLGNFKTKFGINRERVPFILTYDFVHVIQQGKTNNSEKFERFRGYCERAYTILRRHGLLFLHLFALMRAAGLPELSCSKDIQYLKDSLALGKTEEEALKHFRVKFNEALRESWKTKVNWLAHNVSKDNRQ
PI3K p110δ/p85α, sequence (P27986 whole entry partner): as the sequence (P27986 whole entry partner) above

With `CC(=O)c1c(C)c2cnc(Nc3ccc(N4CCNCC4)cn3)nc2n(C2CCCC2)c1=O` [Palbociclib, 6-acetyl-8-cyclopentyl-5-methyl-2-((5-(piperazin-1-yl)pyridin-2-yl)amino)pyrido [2,3-d]pyrimidin-7(8H)-one] the “PI3K p110α/p85α activity” value [1] was “significantly inhibit”, the “PI3K p110β/p85α activity” value [2] was “significantly inhibit” and the “PI3K p110δ/p85α activity” value [3] was “significantly inhibit”. For the same compound, the “generation of superoxide anion” value [4] was “significantly restrict”, the release of elastase [5] was “significantly restrict” and the “psoriasis-like symptoms (enlarged skin photos by handheld digital microscope, FIG. 3B)” value ([6]; Palbociclib 25 mg/kg topical on back skin and IMQ, once per day, after the treatment in 5th day, control shows symptoms from 3rd day) was “not observed”. The “psoriasis-like symptoms (skin photos, FIG. 3A)” value ([6]; Palbociclib 25 mg/kg topical on back skin then IMQ, once per day for 5 days, compared with control (solvent and IMQ), 5th day) was “significantly improved”.
